ChEMBL document CHEMBL3217436, “Synthesis of new chromeno-annulated cis-fused pyrano[3,4-c]pyran derivatives via domino Knoevenagelhetero-DielsAlder reactions and their biological evaluation towards antiproliferative activity” (Medchemcomm, 2012)

How the values were obtained:
[1] = system: MDA-MB-231; assay: Antiproliferative activity against human MDA-MB-231 cells after 48 hrs by MTT assay; assay type: functional, cell-based; conditions: MDA-MB-231, 48 h
[2] = system: SK-N-SH; assay: Antiproliferative activity against human SK-N-SH cells after 48 hrs by MTT assay; assay type: functional, cell-based
[3] = system: A549; assay: Antiproliferative activity against human A549 cells after 48 hrs by MTT assay; assay type: functional, cell-based; conditions: A549, 48 h
[4] = system: MRC5; assay: Antiproliferative activity against human MRC5 cells after 48 hrs by MTT assay; assay type: cell-based; conditions: MRC5, 48 h

Row | Compound | IC50 [1] | IC50 [2] | IC50 [3] | IC50 [4]
1 | Cc1oc2c3c(ccc2c(=O)c1C)OC[C@H]1[C@@H]3c2c(c3ccccc3oc2=O)OC1(C)C | > 100 µM | 1.05 µM | 0.1 µM | 0.6 µM
2 | Cc1oc2c3c(ccc2c(=O)c1-c1ccccc1)OC[C@H]1[C@@H]3c2c(n(C)c(=O)n(C)c2=O)OC1(C)C | > 100 µM | 10.5 µM | > 100 µM | > 100 µM
3 | Cc1coc2c3c(ccc2c1=O)OC[C@H]1[C@@H]3C2=C(CC(C)(C)CC2=O)OC1(C)C | > 100 µM | > 100 µM | > 100 µM | > 100 µM
4 | Cc1oc2c3c(ccc2c(=O)c1-c1ccccc1)OC[C@H]1[C@@H]3C2=C(CC(C)(C)CC2=O)OC1(C)C | > 100 µM | > 100 µM | > 100 µM | > 100 µM
5 | Cc1coc2c3c(ccc2c1=O)OC[C@H]1[C@@H]3CC(=O)OC1(C)C | > 100 µM | > 100 µM | 11.2 µM | > 100 µM
6 | CC(=O)C1=C(C)OC(C)(C)[C@H]2COc3ccc4c(=O)c(C)c(C)oc4c3[C@@H]12 | > 100 µM | 10.7 µM | > 100 µM | > 100 µM
7 | CCOC(=O)C1=C(C)OC(C)(C)[C@H]2COc3ccc4c(=O)c(C)c(C)oc4c3[C@@H]12 | > 100 µM | 10.8 µM | 10.9 µM | 0.9 µM
8 | Cc1nn(-c2ccccc2)c2c1[C@@H]1c3c(ccc4c(=O)c(C)c(C)oc34)OC[C@@H]1C(C)(C)O2 | > 100 µM | 10.6 µM | > 100 µM | > 100 µM

Second part, led by results:

Row | IC50 [1] | IC50 [2] | IC50 [3] | Compound | IC50 [4]
9 | > 100 µM | 1.06 µM | 0.1 µM | Cc1oc2c3c(ccc2c(=O)c1C)OC[C@H]1[C@@H]3c2c(n(C)c(=O)n(C)c2=O)OC1(C)C | > 100 µM
10 | > 100 µM | > 100 µM | > 100 µM | Cc1oc2c3c(ccc2c(=O)c1C)OC[C@H]1[C@@H]3C2=C(CCCC2=O)OC1(C)C | > 100 µM
11 | > 100 µM | > 100 µM | > 100 µM | Cc1coc2c3c(ccc2c1=O)OC[C@H]1[C@@H]3C2=C(CCCC2=O)OC1(C)C | > 100 µM
12 | > 100 µM | > 100 µM | > 100 µM | Cc1oc2c3c(ccc2c(=O)c1-c1ccccc1)OC[C@H]1[C@@H]3C2=C(CCCC2=O)OC1(C)C | > 100 µM
13 | > 100 µM | > 100 µM | > 100 µM | Cc1oc2c3c(ccc2c(=O)c1C)OC[C@H]1[C@@H]3C2=C(CC(C)(C)CC2=O)OC1(C)C | > 100 µM
14 | > 100 µM | > 100 µM | 0.09 µM | Cc1oc2c3c(ccc2c(=O)c1C)OC[C@H]1[C@@H]3CC(=O)OC1(C)C | 0.6 µM
15 | > 100 µM | > 100 µM | > 100 µM | Cc1nn(-c2ccccc2)c2c1[C@@H]1c3c(ccc4c(=O)c(-c5ccccc5)c(C)oc34)OC[C@@H]1C(C)(C)O2 | > 100 µM
